Key:
[1] = system: PC3-ML, ARCaP-M, C4–2B, RM1-BM and TRAMP-C2 cells; assay: Boyden chamber / Transwell Matrigel invasion assay; format: cell-based, human and murine; conditions: 25 μM, 18 hrs, all five cell lines
Description: Boyden chamber assays were performed using Corning® BioCoat® Matrigel® Invasion Chambers obtained from Corning Inc., USA. In brief, cells were seeded on the Matrigel-coated upper chamber and treated with IVMT-Rx-4. Invaded cells were fixed, stained and counted after 18 hrs. as previously described.
Fig. 1. Primary characterization of IVMT-Rx-4. A) Chemical structure (upper panel) and synthesis scheme (lower panel). […] All proteins were extracted, and Western blotting was performed immediately after heating. Quantifications were obtained in the absence (control) or presence of IVMT-Rx-4 and values are presented as percentage of RT (room temperature) normalized for the experimental groups (control, IVMT-Rx-4). SOD (Superoxide dismutase) was used as an endogenous control. […] Colonies were stained with crystal violet and counted (n = 3 ± SD; ns: non-significant). […] Invaded cells were stained with crystal violet. Top panel: representative photograph of invaded cells under different experimental settings. Bottom panel: graphical representation of number of invaded cells/field for different cell lines (n = 3 ± SD; * p < 0.05).

[2] = Log D by shake flask (pH 7.4); format: physicochemical; conditions: pH 7.4, octanol/phosphate buffer
Description: Sodium Phosphate buffer pH 7.4 (10 mM) was used as the aqueous phase and octanol was used as the organic phase. […] The sealed plate was incubated at 25 °C with continuous agitation at 2000 rpm for 2 hrs. Samples were then separated by centrifugation, diluted 100-fold with a mixture of H20 and acetonitrile containing internal standard, and analyzed via LC-MS/MS. The Log D value was calculated using the following equation: […]

[3] = system: Salmonella typhimurium TA98 & TA100; assay: Mini-Ames assay; format: cell-based; conditions: with or without S9 mix
Description: The mini-AMES assay was performed in Pharmaron, Inc. following the standard protocol as developed by the in-house scientist. […] The assay was conducted in the presence or absence of the S9 mix along with concurrent negative/solvent control and positive controls.

[4] = Particle size distribution (PSD); format: physicochemical; conditions: wet method, water
Description: About 15 mg of sample was pre-dispersed using 1 mL of water. After mixing completely, PSD was analyzed with the parameters in Table below.

[5] = Solubility study in bio-relevant media, buffers and solvents; format: physicochemical
NF-κB p65 = NF-κB p65 transcription factor activation assay; format: cell-based, human; conditions: PC3-ML, ARCaP-M and C4–2B cells, 24 hrs, vs vehicle
Description: NF-κB p65 transcription factor assay kits were obtained from Cayman Chemical, USA and performed following the manufacturer’s instructions.
(§1) Fig. 2. […] NF-κB activity was measured by absorbance at 450 nm (n = 3 ± SD; * p < 0.05). […] C) PDGF-AA protein levels were determined in the three PC cell line-derived conditioned media by ELISA. In both panels: n = 3 ± SD; * p < 0.05.

PDGF-AA [6] = assay: PDGF-AA mRNA expression by qRT-PCR in PC cells; format: cell-based, human; conditions: 24 hrs
Description: Total RNA was extracted from cells using miRNeasy kits (Qiagen), and cDNA was prepared as described previously. Gene specific TaqMan Probes were obtained from Applied Bio system, Thermo-Fisher, USA. qRT-PCR was performed using an ABI Quant Studio real-time PCR.
as §1

PDGF-AA [7] = assay: PDGF-AA protein in conditioned media by ELISA; format: cell-based, human; conditions: conditioned media of PC3-ML, ARCaP-M and C4–2B cells
Description: (§2) Human and mouse specific CXCL5, PDGF-AA ELISA kits were obtained from R&D Systems, USA. All ELISAs were performed using the manufacturer’s protocol.
as §1

YAP = assay: Western blot, PDGF-AA activated HS5 cells: YAP; format: cell-based, human; conditions: PDGF-AA 10 ng/ML, 25 μM, 24 hrs
CXCL5 [8] = assay: Secreted CXCL5 by ELISA in HS5 conditioned media; format: cell-based, human; conditions: PDGF-AA activated HS5 cells, 24 hrs
Description: as §2
(§3) Fig. 3. […] CXCL5 mRNA expression was measured by qRT-PCR. […] Secreted CXCL5 in CM was measured by ELISA (n = 3 ± SD; * p < 0.05). […] CXCL5 mRNA expression was measured by qRT-PCR (n = 3 ± SD; * p < 0.05).

CXCL5 [9] = assay: CXCL5 mRNA by qRT-PCR in murine BM-MSCs (WT and mda-9 KO); format: cell-based, C57BL/6 mice; conditions: murine PDGF-AA 10 ng/ML, 25 μM, 24 hrs
Description: Total bone marrow cells were collected from 6 to 8 weeks male MDA-9/Syntenin^WT (mda-9^WT) and global MDA-9/Syntenin knockout (mda-9^−/−) mice as previously described in Das et al.. mda-9^WT and mda-9^−/− bone marrow derived mesenchymal stromal cells were isolated using a previously outlined protocol.
as §3

RM1-BM-Luc cells = assay: Combination and survival study, RM1-BM-Luc syngeneic model; format: in vivo, C57BL/6 mice; conditions: RM1-BM-Luc in C57BL/6, day 14, IVMT-Rx-4 30 mg/kg and/or Docetaxel 5 mg/kg 3X a week for two weeks
Description: Both syngeneic (C57BL/6) and athymic nude mice were used for survival studies. Tumor cells (RM1-BM-Luc or PC3-ML-Luc) were injected intracardially in a cohort of 40 animals. […] In the combination groups, both regimens were administered 3X a week for two-weeks at the same dose as a single therapy. Animals were imaged periodically and maintained until euthanization was required.
Fig. 5. […] A and B) RM1-BM-Luc (A) or PC3-ML-Luc (B) cells were implanted I.C. in C57BL/6 and athymic nude mice, respectively. […] BLI images were used to detect bone metastases (the percentage incidence of bone metastases in animals was calculated at a single time point, day 14). Values are presented at the bottom panel of the respective group (red, number of animals positive for metastasis and black, total number of experimental animals). C and D) Animals were kept until mandated euthanasia based on IACUC guidelines, considered as disease associated death. The Kaplan–Meier survival curves were generated using GraphPad in both models as described in (A) and (B), respectively. E and F) Log-rank test was performed and values between different experimental groups are presented.

## Cc1cc(NC(=O)CCc2nnc(-c3ccccc3)o2)c(C)cc1N [IVMT-Rx-4]
[1]
  cellular invasion: effectively suppressed cellular invasion
[2]
  logD at 2 h: 1.49
[3]; 1.5 to 1000 μg/well
  cytotoxicity to tester strains in Mini-Ames assay: No obvious cytotoxicity
[3]
  Mini-Ames Assay (2-strain option: TA98 & TA100): Weakly positive for 2 strains
[4]
  Dv [90], average value: 58.6 μm
[5]; FaSSIF, FeSSIF and SIF
  solubility in FaSSIF, FeSSIF and SIF: low solubility
[5]; MeOH, EtOH, CH2Cl2, Acetone and MeCN
  solubility in organic solvents: relatively good solubility
[5]; SGF
  solubility in SGF: relative high solubility
[5]; after the solubility test, both media
  stability in SGF and pH 1.2 buffer: degradation was observed
[5]; hexane
  solubility in hexane: almost insoluble
[5]; solubility increased with a decrease of pH
  pH dependence of solubility: pH dependent
[5]; water
  solubility in water: low solubility
NF-κB p65
  NF-κB activity: decreased NF-κB activity
PDGF-AA [6]; PC3-ML mda-9 KO and ARCaP-M mda-9 KO
  PDGF-AA levels in mda-9 knockout clones: did not further reduce PDGF-AA levels
PDGF-AA [6]; PC3-ML, ARCaP-M and C4–2B cells, 25 μM or 50 μM
  PDGF-AA mRNA level: decreased PDGF-AA
PDGF-AA [7]
  PDGF-AA protein level: decreased PDGF-AA
YAP
  phosphorylation of YAP at ser127: promoted
CXCL5 [8]
  CXCL5 protein level: significantly decreased
CXCL5 [9]; mBM-MSC WT
  CXCL5 mRNA expression: CXCL5 suppression occurred exclusively in mBM-MSC^WT
CXCL5 [9]; mBM-MSC mda-9 KO
  CXCL5 mRNA expression: not in mBM-MSC^mda−9 KO cells
RM1-BM-Luc cells
  bone metastases, Incident/Total number tested: 3/8

From publication PMC13401508 (Pharmacological research, 2026)
